The source of these data is US11530229B2, “Cyano cyclobutyl compounds for CBL-B inhibition and uses thereof” (Nurix Therapeutics, Inc., priority 2019, dated 2022).

As usually defined, the IC50 is the concentration that inhibits the measured activity by half.

Molecules are shown by their SMILES. Like-named read-outs stand apart in the source and are kept apart here.

For test [1], the target named is Cbl-b (Homo sapiens (Human), UniProt Q13191). As to the kind of experiment: Cbl-b displacement assay (Cbl-b inhibition assay), Biological Example 1. It counts as binding. The protocol:
Candidate compounds were evaluated for their ability to bind and inhibit Cbl-b, an E3 ubiquitin-protein ligase, as evidenced by their ability to displace a fluorophore-labeled probe (Example 59) bound to Cbl-b.
The ability of candidate compounds to displace a known inhibitor and thereby inhibit Cbl-b activity was measured by monitoring the interaction of Cbl-b with a fluorophore-labeled probe in the presence of the candidate compound. A truncated variant of Cbl-b (UniProt number Q13191; SEQ ID NO:1) containing an Avitag at its N-terminus was co-expressed with BirA biotin ligase and purified using a standard protocol (see Dou et al., Nature Structural and Molecular Biology, 8: 982-987, 2013; Avidity LLC).
Cbl-b Amino Acid Residues 36-427:
Fluorescently-labeled inhibitor probe was synthesized and tagged with BODIPY FL (Example 59). Cbl-b displacement assays were performed in a 384-well plate at room temperature in a 10 μL reaction volume by pre-incubating 0.5 nM Cbl-b or 0.125 nM Cbl-b (final concentration, indicated as “High” and “Low”, respectively) in an assay buffer containing 20 mM HEPES pH 7.5, 150 mM NaCl, 0.01% Triton X-100, 0.01% BSA and 0.5 mM TCEP in the presence of a candidate compound in 1% DMSO (final concentration) for 1 hour. After incubation in the presence of the candidate compound, the plate was incubated for an additional 1 hour in the presence of an approximate EC40 binding saturation consisting of 150 nM fluorescently-labeled inhibitor probe and 2 nM Streptavidin-Terbium (Cisbio) (final concentrations). Following the 1 hour incubation, the plates were read for TR-FRET signal at […] using an Envision plate reader (Perkin Elmer).

Test [2] deals with primary human total T-cells. The test is described as follows: T-cell activation, IL-2 secretion, Biological Example 2. The test is classed as cell-based. To be noted: 48 hours, fold change over baseline; for fold induction at 0.3 µM: 0.3 μM inhibitor; for fold induction at 1 µM: 1 μM inhibitor; for fold induction at 3 µM: 3 μM inhibitor.
The test system of test [3] is primary human total T-cells. As to the kind of experiment: T-cell activation, CD25 surface staining, Biological Example 2. The test is classed as cell-based. As to conditions: 48 hours, fold change over baseline; for fold induction at 0.3 µM: 0.3 μM inhibitor; for fold induction at 1 µM: 1 μM inhibitor; for fold induction at 3 µM: 3 μM inhibitor.
Where [4] appears, read: read-out: IC50 values in the Cbl-b inhibition assay of Biological Example 1.
Setting [5] is: anti-CD3 and anti-CD28 co-stimulation.
[6] abbreviates: anti-CD3 and anti-CD28 co-stimulation, read-out: IL-2 secretion CD3/CD28 1 μM.
Setting [7] is: anti-CD3 stimulation alone, read-out: IL-2 secretion CD3 1 μM.
Setting [8] is: anti-CD3 and anti-CD28 co-stimulation, read-out: CD25 staining CD3/CD28 1 μM.
Where [9] appears, read: anti-CD3 stimulation alone, read-out: CD25 staining CD3 1 μM.
[10] abbreviates: 0.125 nM Cbl-b final concentration (Low), read-out: Cbl-b activity IC50 (Low).

Sequence of Cbl-b (Q13191 36-427): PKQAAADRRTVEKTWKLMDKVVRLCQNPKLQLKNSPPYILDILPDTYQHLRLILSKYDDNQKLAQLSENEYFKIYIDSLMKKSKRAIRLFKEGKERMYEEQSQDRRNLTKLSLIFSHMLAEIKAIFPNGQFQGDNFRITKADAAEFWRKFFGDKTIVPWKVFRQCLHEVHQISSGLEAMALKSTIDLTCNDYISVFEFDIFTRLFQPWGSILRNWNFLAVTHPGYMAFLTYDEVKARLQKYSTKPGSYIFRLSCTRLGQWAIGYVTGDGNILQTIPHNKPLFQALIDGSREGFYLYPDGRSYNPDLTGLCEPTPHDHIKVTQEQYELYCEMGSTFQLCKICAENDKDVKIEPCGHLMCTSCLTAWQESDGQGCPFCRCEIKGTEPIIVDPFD

`Cc1cc(C(=O)Nc2cccc([C@]3(Cc4nncn4C)C[C@H](C#N)C3)c2)nc(C2CC2)n1` [Compound 2, N-(3-((1s,3s)-3-cyano-1-((4-methyl-4H-1,2,4-triazol-3-yl)methyl)cyclobutyl)phenyl)-2-cyclopropyl-6-methylpyrimidine-4-carboxamide]: the concentration for half-maximal inhibition (IC50) in test [1] (0.5 nM Cbl-b final concentration (High), read-out: Cbl-b activity IC50 (High)) is 2 to 5 nM; in test [1] (setting [4]) it was 2 to 5 nM. Further, the fold induction at 0.3 µM was at most 15 in test [2] (setting [5]) and at most 1.24 in test [3] (setting [5]). The fold induction at 1 µM is at most 15 in test [2] (setting [6]), under 0.4 in test [2] (setting [7]), at most 1.24 in test [3] (setting [8]) and 1 to 1.15 in test [3] (setting [9]). Further, the fold induction at 3 µM is under 0.4 in test [2] (anti-CD3 stimulation alone) and 1 to 1.15 in test [3] (anti-CD3 stimulation alone).

`Cn1cnnc1C[C@]1(c2cccc(N3Cc4c(cccc4C(F)(F)F)C3=O)c2)C[C@H](C#N)C1` [Compound 3, (1r,3r)-3-((4-methyl-4H-1,2,4-triazol-3-yl)methyl)-3-(3-(1-oxo-4-(trifluoromethyl)isoindolin-2-yl)phenyl)cyclobutane-1-carbonitrile]: the IC50 in test [1] (setting [10]) and in test [1] (setting [4]) was at least 20 nM in each case. Further, the values for the fold induction at 0.3 µM in test [2] (setting [5]) and in test [3] (setting [5]) were at most 15 and at most 1.24, respectively. Further, the fold induction at 1 µM in test [2] (setting [6]) is at most 15; in test [2] (setting [7]) it was under 0.4; in test [3] (setting [8]) it was at most 1.24; in test [3] (setting [9]), at most 1. Further, the fold induction at 3 µM in test [2] (anti-CD3 stimulation alone) was under 0.4; in test [3] (anti-CD3 stimulation alone), 1 to 1.15.

As for `CCC1CN(Cc2cc3c(c(C(F)(F)F)c2)CN(c2cccc([C@]4(Cc5nncn5C)C[C@@H](C#N)C4)c2)C3=O)CCCO1` (stereo partly drawn) [Compound 5, (1r,3r)-3-(3-(6-((2-ethyl-1,4-oxazepan-4-yl)methyl)-1-oxo-4-(trifluoromethyl)isoindolin-2-yl)phenyl)-3-((4-methyl-4H-1,2,4-triazol-3-yl)methyl)cyclobutane-1-carbonitrile], the 50% inhibitory concentration (IC50) in test [1] (setting [10]) and in test [1] (setting [4]) was 2 to 5 nM each time. In addition, the values for the fold induction at 0.3 µM in test [2] (setting [5]) and in test [3] (setting [5]) were over 20 and over 1.39, respectively. For the same compound, the fold induction at 1 µM was over 20 in test [2] (setting [6]), over 0.85 in test [2] (setting [7]), over 1.39 in test [3] (setting [8]) and over 1.15 in test [3] (setting [9]). Moreover, the fold induction at 3 µM in test [2] (anti-CD3 stimulation alone) is over 0.85; in test [3] (anti-CD3 stimulation alone), over 1.15.

As to `C[C@@H]1CN(Cc2cc3c(c(C(F)(F)F)c2)CN(c2cccc([C@]4(Cc5nncn5C)C[C@@H](C#N)C4)c2)C3=O)CCO1` [Compound 6, (1r,3r)-3-((4-methyl-4H-1,2,4-triazol-3-yl)methyl)-3-(3-(6-(((R)-2-methylmorpholino)methyl)-1-oxo-4-(trifluoromethyl)isoindolin-2-yl)phenyl)cyclobutane-1-carbonitrile], the IC50 in test [1] (setting [10]) and in test [1] (setting [4]) was 2 to 5 nM each time. Also, the figures for the fold induction at 0.3 µM in test [2] (setting [5]) and in test [3] (setting [5]) were at most 15 and at most 1.24, respectively. Also, the fold induction at 1 µM in test [2] (setting [6]) is at most 15; in test [2] (setting [7]) it was 0.4 to 0.85; in test [3] (setting [8]), at most 1.24; in test [3] (setting [9]), 1 to 1.15. Besides, the fold induction at 3 µM is 0.4 to 0.85 in test [2] (anti-CD3 stimulation alone) and at most 1 in test [3] (anti-CD3 stimulation alone).

In the case of `C[C@@H]1CN(Cc2cc3c(c(C(F)(F)F)c2)CN(c2cccc([C@]4(Cc5nncn5C)C[C@@](C)(C#N)C4)c2)C3=O)CCO1` [Compound 7, (1r,3r)-1-methyl-3-((4-methyl-4H-1,2,4-triazol-3-yl)methyl)-3-(3-(6-(((R)-2-methylmorpholino)methyl)-1-oxo-4-(trifluoromethyl)isoindolin-2-yl)phenyl)cyclobutane-1-carbonitrile], the IC50 in test [1] (setting [10]) and in test [1] (setting [4]) was 5 to 20 nM in each case. The figures for the fold induction at 0.3 µM in test [2] (setting [5]) and in test [3] (setting [5]) were at most 15 and at most 1.24, respectively. The fold induction at 1 µM is at most 15 in test [2] (setting [6]), under 0.4 in test [2] (setting [7]), 1.24 to 1.39 in test [3] (setting [8]) and at most 1 in test [3] (setting [9]). In addition, the fold induction at 3 µM in test [2] (anti-CD3 stimulation alone) is under 0.4; in test [3] (anti-CD3 stimulation alone) it was at most 1.

With `Cc1cc(C(=O)Nc2cccc([C@]3(Cc4nncn4C)C[C@@](C)(C#N)C3)c2)nc(C2CC2)n1` [Compound 8, N-(3-((1r,3r)-3-cyano-3-methyl-1-((4-methyl-4H-1,2,4-triazol-3-yl)methyl)cyclobutyl)phenyl)-2-cyclopropyl-6-methylpyrimidine-4-carboxamide], the IC50 in test [1] (setting [10]) and in test [1] (setting [4]) was at least 20 nM each time.

Take `Cc1cc(C(=O)Nc2cccc([C@]3(Cc4nncn4C)C[C@](C)(C#N)C3)c2)nc(C2CC2)n1` [Compound 9]: the IC50 in test [1] (setting [10]) and in test [1] (setting [4]) was 5 to 20 nM each time. In addition, the fold induction at 0.3 µM in test [2] (setting [5]) is at most 15; in test [3] (setting [5]) it was at most 1.24. In addition, the fold induction at 1 µM in test [2] (setting [6]) was at most 15; in test [2] (setting [7]), under 0.4; in test [3] (setting [8]), 1.24 to 1.39; in test [3] (setting [9]), at most 1. Moreover, the fold induction at 3 µM is under 0.4 in test [2] (anti-CD3 stimulation alone) and 1 to 1.15 in test [3] (anti-CD3 stimulation alone).

In the case of `C[C@@H]1CN(Cc2cc3c(c(C(F)(F)F)c2)CN(c2cccc([C@]4(Cc5nncn5C)C[C@](C)(C#N)C4)c2)C3=O)CCO1` [Compound 10, (1S,3s)-1-methyl-3-((4-methyl-4H-1,2,4-triazol-3-yl)methyl)-3-(3-(6-(((R)-2-methylmorpholino)methyl)-1-oxo-4-(trifluoromethyl)isoindolin-2-yl)phenyl)cyclobutane-1-carbonitrile], the IC50 in test [1] (setting [10]) and in test [1] (setting [4]) was at least 20 nM in each case. The fold induction at 0.3 µM in test [2] (setting [5]) was at most 15; in test [3] (setting [5]) it was at most 1.24. In addition, the fold induction at 1 µM in test [2] (setting [6]) is at most 15; in test [2] (setting [7]), under 0.4; in test [3] (setting [8]), at most 1.24; in test [3] (setting [9]) it was at most 1. In addition, the fold induction at 3 µM in test [2] (anti-CD3 stimulation alone) was under 0.4; in test [3] (anti-CD3 stimulation alone), at most 1.

As for `C[C@@H]1CN(Cc2cc3c(c(C(F)(F)F)c2)CN(c2cccc([C@]4(Cc5nncn5C)C[C@@H](CC#N)C4)c2)C3=O)CCC1(F)F` [Compound 51, [(1r,3r)-3-[3-(6-{[(3R)-4,4-difluoro-3-methylpiperidin-1-yl]methyl}-1-oxo-4-(trifluoromethyl)-3H-isoindol-2-yl)phenyl]-3-[(4-methyl-1,2,4-triazol-3-yl)methyl]cyclobutyl]acetonitrile], the IC50 in test [1] (setting [10]) and in test [1] (setting [4]) was at least 20 nM throughout.

As to `C[C@@H]1CN(Cc2cc3c(c(C(F)(F)F)c2)CN(c2cccc([C@]4(Cc5nncn5C)C[C@H](CC#N)C4)c2)C3=O)CCC1(F)F` [Compound 52, ((1S,3s)-3-(3-(6-(((R)-4,4-difluoro-3-methylpiperidin-1-yl)methyl)-1-oxo-4-(trifluoromethyl)isoindolin-2-yl)phenyl)-3-((4-methyl-4H-1,2,4-triazol-3-yl)methyl)cyclobutyl)acetonitrile], the IC50 in test [1] (setting [10]) and in test [1] (setting [4]) was 5 to 20 nM in each case.

As for `C[C@@H]1CN(C(C)(C)c2cc3c(c(C(F)(F)F)c2)CN(c2cccc([C@]4(Cc5nncn5C)C[C@@H](C#N)C4)c2)C3=O)CCO1` [Compound 58, (1R,3r)-3-((4-methyl-4H-1,2,4-triazol-3-yl)methyl)-3-(3-(6-(2-((R)-2-methylmorpholino)propan-2-yl)-1-oxo-4-(trifluoromethyl)isoindolin-2-yl)phenyl)cyclobutane-1-carbonitrile], the IC50 in test [1] (setting [10]) and in test [1] (setting [4]) was 2 to 5 nM each time.
